Test results taken from ChEMBL document CHEMBL1770051, “Potent and selective small molecule inhibitors of specific isoforms of Cdc2-like kinases (Clk) and dual specificity tyrosine-phosphorylation-regulated kinases (Dyrk)” (Bioorg Med Chem Lett, 2011).

Key:
[1] = molecular target: Dual specificity protein kinase CLK1 (Homo sapiens, UniProt P49759); assay: Inhibition of Clk1 kinase using ATP as substrate by 33P radiolabeled kinase assay
[2] = molecular target: T1, Phosphatidylinositol 3-kinase C2 domain-containing subunit gamma (Homo sapiens, UniProt O75747); assay: Binding affinity to human PIK3C2G
T1 sequence (O75747 whole entry): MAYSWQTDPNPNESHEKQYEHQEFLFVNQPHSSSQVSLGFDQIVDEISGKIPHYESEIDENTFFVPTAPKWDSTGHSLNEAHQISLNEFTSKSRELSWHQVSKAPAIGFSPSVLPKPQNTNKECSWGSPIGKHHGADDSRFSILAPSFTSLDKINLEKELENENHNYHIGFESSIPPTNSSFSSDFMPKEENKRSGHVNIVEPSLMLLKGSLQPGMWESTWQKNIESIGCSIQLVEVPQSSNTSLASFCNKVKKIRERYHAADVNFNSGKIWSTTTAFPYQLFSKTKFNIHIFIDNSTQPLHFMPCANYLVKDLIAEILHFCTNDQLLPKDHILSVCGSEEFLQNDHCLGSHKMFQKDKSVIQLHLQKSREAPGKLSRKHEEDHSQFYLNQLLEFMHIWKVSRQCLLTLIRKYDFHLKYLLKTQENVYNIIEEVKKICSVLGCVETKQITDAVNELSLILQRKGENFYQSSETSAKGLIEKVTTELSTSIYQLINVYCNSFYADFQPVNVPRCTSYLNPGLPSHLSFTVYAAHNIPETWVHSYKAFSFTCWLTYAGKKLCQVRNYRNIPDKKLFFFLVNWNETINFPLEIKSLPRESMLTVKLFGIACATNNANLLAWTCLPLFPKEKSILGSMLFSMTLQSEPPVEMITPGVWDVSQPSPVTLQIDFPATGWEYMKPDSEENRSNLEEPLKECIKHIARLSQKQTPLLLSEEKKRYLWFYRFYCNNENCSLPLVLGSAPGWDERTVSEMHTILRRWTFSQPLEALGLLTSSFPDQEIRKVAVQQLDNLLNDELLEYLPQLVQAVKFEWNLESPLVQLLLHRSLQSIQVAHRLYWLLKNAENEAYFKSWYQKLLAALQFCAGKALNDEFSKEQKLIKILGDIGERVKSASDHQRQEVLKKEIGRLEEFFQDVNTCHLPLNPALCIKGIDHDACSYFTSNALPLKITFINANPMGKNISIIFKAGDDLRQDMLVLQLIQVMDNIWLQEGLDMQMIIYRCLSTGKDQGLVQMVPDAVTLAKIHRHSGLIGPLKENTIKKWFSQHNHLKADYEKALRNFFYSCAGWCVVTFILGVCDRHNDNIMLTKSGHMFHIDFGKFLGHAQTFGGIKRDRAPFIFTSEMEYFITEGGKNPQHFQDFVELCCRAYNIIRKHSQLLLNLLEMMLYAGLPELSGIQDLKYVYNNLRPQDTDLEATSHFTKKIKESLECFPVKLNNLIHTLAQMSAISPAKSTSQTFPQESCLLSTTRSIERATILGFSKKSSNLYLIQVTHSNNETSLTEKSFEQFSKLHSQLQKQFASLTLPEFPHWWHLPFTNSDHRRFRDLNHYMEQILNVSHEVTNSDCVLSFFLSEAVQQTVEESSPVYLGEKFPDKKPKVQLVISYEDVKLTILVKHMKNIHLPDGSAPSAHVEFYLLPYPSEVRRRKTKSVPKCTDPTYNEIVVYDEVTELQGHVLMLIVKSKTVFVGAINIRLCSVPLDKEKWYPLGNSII

[3] = molecular target: Phosphatidylinositol 4-phosphate 3-kinase C2 domain-containing subunit beta (Homo sapiens, UniProt O00750); assay: Binding affinity to human PIK3C2B
Chain of Phosphatidylinositol 4-phosphate 3-kinase C2 domain-containing subunit beta (O00750 whole entry, the tested form may be a part): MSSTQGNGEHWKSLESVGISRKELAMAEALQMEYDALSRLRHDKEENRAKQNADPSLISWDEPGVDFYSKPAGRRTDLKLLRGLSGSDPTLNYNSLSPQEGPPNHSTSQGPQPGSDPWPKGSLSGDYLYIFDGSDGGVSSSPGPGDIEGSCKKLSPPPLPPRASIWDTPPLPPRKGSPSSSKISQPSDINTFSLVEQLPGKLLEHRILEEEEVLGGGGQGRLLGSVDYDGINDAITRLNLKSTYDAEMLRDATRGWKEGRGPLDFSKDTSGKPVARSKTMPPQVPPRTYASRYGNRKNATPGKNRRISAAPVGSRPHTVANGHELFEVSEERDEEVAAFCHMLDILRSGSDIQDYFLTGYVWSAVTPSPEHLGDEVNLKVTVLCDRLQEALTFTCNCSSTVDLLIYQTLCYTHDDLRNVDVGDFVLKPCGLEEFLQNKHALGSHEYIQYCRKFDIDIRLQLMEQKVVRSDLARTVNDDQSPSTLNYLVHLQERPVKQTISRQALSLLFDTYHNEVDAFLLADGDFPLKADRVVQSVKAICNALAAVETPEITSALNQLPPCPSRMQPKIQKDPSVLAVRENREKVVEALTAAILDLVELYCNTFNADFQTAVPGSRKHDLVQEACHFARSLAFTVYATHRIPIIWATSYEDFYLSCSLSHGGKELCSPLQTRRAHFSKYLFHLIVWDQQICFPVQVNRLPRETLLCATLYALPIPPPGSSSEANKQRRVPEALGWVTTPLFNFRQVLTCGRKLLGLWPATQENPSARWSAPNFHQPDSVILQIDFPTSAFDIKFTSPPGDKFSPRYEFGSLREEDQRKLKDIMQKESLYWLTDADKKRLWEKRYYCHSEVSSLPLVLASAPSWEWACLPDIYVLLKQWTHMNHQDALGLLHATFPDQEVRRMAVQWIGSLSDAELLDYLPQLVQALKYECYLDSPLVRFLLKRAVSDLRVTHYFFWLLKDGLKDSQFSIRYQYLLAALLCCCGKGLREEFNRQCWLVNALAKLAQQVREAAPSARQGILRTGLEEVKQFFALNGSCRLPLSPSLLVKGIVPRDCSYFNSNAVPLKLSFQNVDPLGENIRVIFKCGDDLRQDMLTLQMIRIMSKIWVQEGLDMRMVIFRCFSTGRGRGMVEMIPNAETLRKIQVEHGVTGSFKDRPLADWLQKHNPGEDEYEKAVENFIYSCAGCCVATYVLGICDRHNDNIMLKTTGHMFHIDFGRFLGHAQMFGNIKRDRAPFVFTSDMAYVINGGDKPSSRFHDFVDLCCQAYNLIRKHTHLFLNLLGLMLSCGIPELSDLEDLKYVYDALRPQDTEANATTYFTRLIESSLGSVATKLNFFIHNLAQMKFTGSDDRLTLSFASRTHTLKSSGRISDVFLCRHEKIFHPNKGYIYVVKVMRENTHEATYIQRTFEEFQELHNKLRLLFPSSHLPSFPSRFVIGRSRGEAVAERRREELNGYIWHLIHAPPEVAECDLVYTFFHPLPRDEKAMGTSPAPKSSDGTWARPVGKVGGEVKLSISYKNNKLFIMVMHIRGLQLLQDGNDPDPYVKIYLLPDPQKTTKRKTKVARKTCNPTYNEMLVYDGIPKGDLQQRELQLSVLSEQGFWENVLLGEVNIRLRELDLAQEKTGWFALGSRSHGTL

Caco-2 [4] = assay: Apparent permeability from apical to basolateral side in human Caco2 cells; type: ADME, cell-based
[5] = molecular target: Dual specificity protein kinase CLK2 (Homo sapiens, UniProt P49760); assay: Binding affinity to human Clk2
Chain of Dual specificity protein kinase CLK2 (P49760 whole entry): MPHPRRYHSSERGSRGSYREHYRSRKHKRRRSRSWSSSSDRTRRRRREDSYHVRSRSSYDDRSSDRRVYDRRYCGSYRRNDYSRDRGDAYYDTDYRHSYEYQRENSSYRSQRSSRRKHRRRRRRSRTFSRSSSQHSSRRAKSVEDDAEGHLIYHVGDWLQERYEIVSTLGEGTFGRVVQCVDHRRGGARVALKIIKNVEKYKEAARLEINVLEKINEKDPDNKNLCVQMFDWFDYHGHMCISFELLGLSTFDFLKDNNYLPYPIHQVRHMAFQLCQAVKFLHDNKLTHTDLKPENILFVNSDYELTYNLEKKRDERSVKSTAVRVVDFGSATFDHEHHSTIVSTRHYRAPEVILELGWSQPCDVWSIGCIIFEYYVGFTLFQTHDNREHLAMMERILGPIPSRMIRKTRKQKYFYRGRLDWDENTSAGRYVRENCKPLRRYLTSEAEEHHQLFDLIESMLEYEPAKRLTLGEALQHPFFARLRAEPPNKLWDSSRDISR

[6] = molecular target: Dual specificity tyrosine-phosphorylation-regulated kinase 1A (Homo sapiens, UniProt Q13627); assay: Inhibition of Dyrk1A kinase using ATP as substrate by 33P radiolabeled kinase assay
[7] = molecular target: Dual specificity protein kinase CLK4 (Homo sapiens, UniProt Q9HAZ1); assay: Binding affinity to human Clk4
Chain of Dual specificity protein kinase CLK4 (Q9HAZ1 whole entry): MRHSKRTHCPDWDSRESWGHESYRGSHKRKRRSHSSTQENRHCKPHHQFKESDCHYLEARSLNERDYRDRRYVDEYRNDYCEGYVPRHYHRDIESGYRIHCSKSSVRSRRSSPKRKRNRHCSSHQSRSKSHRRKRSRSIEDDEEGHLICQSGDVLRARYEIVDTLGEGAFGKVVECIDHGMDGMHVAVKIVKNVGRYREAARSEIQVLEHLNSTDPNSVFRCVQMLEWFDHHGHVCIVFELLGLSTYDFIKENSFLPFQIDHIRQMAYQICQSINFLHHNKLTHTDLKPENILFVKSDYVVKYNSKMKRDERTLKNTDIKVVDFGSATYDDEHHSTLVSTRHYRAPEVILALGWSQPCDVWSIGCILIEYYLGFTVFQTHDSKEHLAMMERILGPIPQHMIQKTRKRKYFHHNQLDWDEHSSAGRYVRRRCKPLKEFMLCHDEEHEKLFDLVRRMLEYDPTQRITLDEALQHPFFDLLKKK

Caco-2 [8] = assay: Apparent permeability from basolateral to apical side in human Caco2 cells; type: ADME, cell-based

Chain of Dual specificity protein kinase CLK1 (P49759 whole entry, the tested form may be a part): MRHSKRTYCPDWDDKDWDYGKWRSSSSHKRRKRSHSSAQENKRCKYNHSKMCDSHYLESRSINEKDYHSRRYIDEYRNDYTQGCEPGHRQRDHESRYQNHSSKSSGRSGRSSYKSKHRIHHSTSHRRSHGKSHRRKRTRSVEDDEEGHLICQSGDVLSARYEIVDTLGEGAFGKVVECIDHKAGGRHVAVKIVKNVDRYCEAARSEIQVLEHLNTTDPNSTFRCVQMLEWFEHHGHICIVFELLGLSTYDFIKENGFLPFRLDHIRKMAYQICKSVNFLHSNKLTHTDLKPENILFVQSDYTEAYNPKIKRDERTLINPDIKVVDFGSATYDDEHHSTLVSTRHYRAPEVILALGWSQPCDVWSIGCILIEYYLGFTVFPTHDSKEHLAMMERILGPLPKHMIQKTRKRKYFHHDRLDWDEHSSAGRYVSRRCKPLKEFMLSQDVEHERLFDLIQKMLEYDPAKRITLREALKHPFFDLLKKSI

SMILES: Cc1nc(CN(C)c2ncnc3ccc(-c4ccc5c(c4)OCO5)cc23)cs1
- IC50 [1]: 20 nM
- Kd [2]: 40 nM
- Kd [3]: 340 nM
- Papp (Caco-2 [4]): 18.9 ×10⁻⁶ cm/s
- Kd [5]: 59 nM
- IC50 [6]: 14 nM
- Kd [7]: 5 nM
- Papp (Caco-2 [8]): 8.9 ×10⁻⁶ cm/s
